Assay results published in article PMC4920105, “Identification and Development of 2,3-Dihydropyrrolo[1,2-a]quinazolin-5(1H)-one Inhibitors Targeting Bromodomains within the Switch/Sucrose Nonfermenting Complex” (Journal of Medicinal Chemistry, 2016).

Legend:
[1] = Aqueous stability by 1H NMR in D2O time course; type: physicochemical
Source text: Compounds were synthesized by the routes shown in Scheme 1. Amidation of 2-aminobenzamide 2 with 4-chlorobutanoyl chloride[29] gave amide 3, which could be cyclized to the 2,3-dihydropyrrolo[1,2-a]quinazolin-5(1H)-one core 4 using potassium tert-butoxide. The isomer was confirmed on the basis of NOE correlations and subsequent crystallography. The weak nucleophilicity of the core was then exploited by reacting compound 4 with substituted N,N-dialkylformamides using Vilsmeier–Haack conditions, giving analogues incorporating nitrogen-based aliphatic side chains solely as the E regioisomer. This chemistry was unsuitable for piperazine-based formamides. For these side chains, analogues 12–15 were synthesized as single regioisomers by displacement of the dimethylamino group in 5 using cyclic secondary amines and DMAP catalysis. Due to the potential for hydrolysis of the enamine-like moiety, the aqueous stability of 5 was assessed by ^1H NMR in a D2O time course experiment and was stable for >24 h. […] Their binding to PB1(5) was assessed by the operationally simple DSF assay (Table 1). […] Six-membered aliphatic rings (10–14) were better tolerated than analogues containing six-membered aromatic side chains (see Supporting Information), likely due to their greater flexibility. However, expansion to a seven-membered ring reduced activity.

CECR2A = target: T1, CECR2A (Homo sapiens, UniProt Q9BXF3); experiment: DSF Tm shift assay, CECR2A; type: binding; details: single measurement
T1 construct: Bromodomain DSF Tm assays were performed; made in house
T1 sequence (Q9BXF3 434-538 limits assumed): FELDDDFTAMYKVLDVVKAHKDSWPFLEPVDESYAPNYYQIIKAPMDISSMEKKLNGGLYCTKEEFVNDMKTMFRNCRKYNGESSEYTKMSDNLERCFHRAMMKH
Description: (§1) Protein Expression and Purification.
(§2) Proteins were cloned, expressed, and purified as previously described.1 […]
(§3) Bromodomain DSF Tm assays were performed using a Mx3005p real-time PCR machine (Agilent) and low profile 96-well PCR plates (AB-0700, Life Technologies). Protein was buffered in 10 mM HEPES, pH 7.5, 500 mM NaCl and assayed at a concentration of 2 µM with 10 µM inhibitor concentration and 1:1000 SyproOrange (Invitrogen). Excitation and emission filters were set to 465 and 590 nm respectively. The temperature was raised by 3 °C per 1 min from 25–95 °C, and fluorescence readers were taken at each interval. Data analysis was carried out as described previously.2
(§4) AlphaScreen Displacement Assay.
(§5) AlphaScreen assays were based on a reported protocol, with minor variations.3 In place of a biotinylated peptide, a biotinylated ligand was used at 25 nM final concentration.
(§6) Isothermal Calorimetry Experiments.
(§7) Calorimetric experiments were performed on a VP-ITC micro-calorimeter (MicroCalTM, LLC Northampton, MA). Protein solutions were buffer exchanged by dialysis into buffer 20 mM Hepes pH 7.5, 150 mM NaCl, and 0.5 mM TCEP. All measurements were carried out at 293.15 K while stirring at 286 rpm. The micro syringe was loaded with protein solutions ranging from […]

BRD9A = target: T2, BRD9A (Homo sapiens, UniProt Q9H8M2); experiment: DSF Tm shift assay, BRD9A; type: binding; details: single measurement
T2 construct: Bromodomain DSF Tm assays were performed; made in house
T2 sequence (Q9H8M2 136-240 limits assumed): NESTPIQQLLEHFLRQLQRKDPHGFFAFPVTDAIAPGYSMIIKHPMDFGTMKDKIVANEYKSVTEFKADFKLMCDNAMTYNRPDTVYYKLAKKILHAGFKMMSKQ
Description: as §1, §2, §3, §4, §5, §6, §7

BRPF1B = target: T3, BRPF1B (Homo sapiens, UniProt P55201); experiment: DSF Tm shift assay, BRPF1B; type: binding; details: single measurement
T3 construct: Bromodomain DSF Tm assays were performed; made in house
T3 sequence (P55201 628-732 limits assumed): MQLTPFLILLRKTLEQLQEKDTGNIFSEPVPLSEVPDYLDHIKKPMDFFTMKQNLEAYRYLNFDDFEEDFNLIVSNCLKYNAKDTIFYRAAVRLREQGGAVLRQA
Description: as §1, §2, §3, §4, §5, §6, §7

For CN(C)/C=C1\CCn2c1nc(=O)c1ccccc12 [Compound 5, (E)-3-((Dimethylamino)methylene)-2,3-dihydropyrrolo[1,2-a]quinazolin-5(1H)-one], which aqueous stability [1] is on record?
Its aqueous stability is over 24 h.

And the “CECR2A Tm” value (CECR2A)?
Its value is 0.1 °C.

And the “BRD9A Tm” value (BRD9A)?
The value was 0.2 °C.

And the “BRPF1B Tm” value (BRPF1B)?
The value was 0.1 °C.
